Test results: patent publication US12324802B2, “Modulators of cystic fibrosis transmembrane conductance regulator” (Vertex Pharmaceuticals Incorporated, priority 2020, dated 2025)
Read-outs that look alike come from different tables or passages of the source.

Settings: rcm bond, DCE

## CC(C)(C)OC(=O)Nc1cc(C(F)(F)F)c2nc1-c1nnc(o1)C(OCc1ccccc1)CCC=CC[C@@H]1CCCN21 (mixture of isomers)
From C=CCCC(OCc1ccccc1)c1nnc(-c2nc(N3CCC[C@H]3CC=C)c(C(F)(F)F)cc2NC(=O)OC(C)(C)C)o1, 14-membered ring, Zhan-1B (15 mol%), 6.77 mM, 70.0 °C, 20.0 h
  ring closure, isolated yield: 6%

## CC(C)(C)OC(=O)Nc1cc(C(F)(F)F)c2nc1-c1nnc(o1)[C@@](OCc1ccccc1)(C(F)(F)F)CCC=CCC(C(=O)N1CCCC1)N2 (mixture of isomers)
From C=CCC[C@@](OCc1ccccc1)(c1nnc(-c2nc(NC(CC=C)C(=O)N3CCCC3)c(C(F)(F)F)cc2NC(=O)OC(C)(C)C)o1)C(F)(F)F, 14-membered ring, Zhan catalyst-1B, 1.4 mM, 75.0 °C, 2.0 h
  ring closure, isolated yield: 66%

## CC(C)N1CCC=CCCC(OCc2ccccc2)(C(F)(F)F)C2=NN=C(O2)c2nc1c(C(F)(F)F)cc2[N+](=O)[O-] (mixture of isomers)
From C=CCCN(c1nc(-c2nnc(C(CCC=C)(OCc3ccccc3)C(F)(F)F)o2)c([N+](=O)[O-])cc1C(F)(F)F)C(C)C, 14-membered ring, Zhan-1B, 2.53 mM, 75.0 °C, 3.0 h
  ring closure, isolated yield: 84%

## CC1(COCc2ccccc2)CC=CCC[C@](OCc2ccccc2)(C(F)(F)F)C2=NN=C(O2)c2nc(c(C(F)(F)F)cc2[N+](=O)[O-])N1 (mixture of isomers)
From C=CCC[C@@](OCc1ccccc1)(c1nnc(-c2nc(NC(C)(CC=C)COCc3ccccc3)c(C(F)(F)F)cc2[N+](=O)[O-])o1)C(F)(F)F, 14-membered ring, Zhan catalyst-1B, 2.83 mM, 60.0 °C, 3.17 h
  ring closure, isolated yield: 75%

## CC1CC=CCCC(OCc2ccccc2)(C(F)(F)F)C2=NN=C(O2)c2nc(c(C(F)(F)F)cc2[N+](=O)[O-])N1 (mixture of isomers)
From C=CCCC(OCc1ccccc1)(c1nnc(-c2nc(NC(C)CC=C)c(C(F)(F)F)cc2[N+](=O)[O-])o1)C(F)(F)F, 14-membered ring, Zhan-1B, 1.85 mM, 75.0 °C, 3.0 h
  ring closure, isolated yield: 61%

## CCOC(=O)C1CC=CCCC(OCc2ccccc2)(C(F)(F)F)C2=NN=C(O2)c2nc(c(C(F)(F)F)cc2[N+](=O)[O-])N1 (mixture of isomers)
From C=CCCC(OCc1ccccc1)(c1nnc(-c2nc(NC(CC=C)C(=O)OCC)c(C(F)(F)F)cc2[N+](=O)[O-])o1)C(F)(F)F, 14-membered ring, Zhan catalyst-1B, 3.41 mM, 75.0 °C, 2.0 h
  ring closure, isolated yield: 36%

## CCOC(=O)CN1CCC=CCCC(OCc2ccccc2)(C(F)(F)F)C2=NN=C(O2)c2nc1c(C(F)(F)F)cc2N(C(=O)OC(C)(C)C)C(=O)OC(C)(C)C (mixture of isomers)
From C=CCCN(CC(=O)OCC)c1nc(-c2nnc(C(CCC=C)(OCc3ccccc3)C(F)(F)F)o2)c(N(C(=O)OC(C)(C)C)C(=O)OC(C)(C)C)cc1C(F)(F)F, 14-membered ring, Zhan-1B, 2.3 mM, 75.0 °C, 2.0 h
  ring closure, isolated yield: 92%

## CN1CCC=CCCC(OCc2ccccc2)(C(F)(F)F)C2=NN=C(O2)c2nc1c(C(F)(F)F)cc2NC(=O)OC(C)(C)C (mixture of isomers)
From C=CCCN(C)c1nc(-c2nnc(C(CCC=C)(OCc3ccccc3)C(F)(F)F)o2)c(NC(=O)OC(C)(C)C)cc1C(F)(F)F, 14-membered ring, Zhan-1B (15 mol%), 6.34 mM, 70.0 °C, 2.0 h
  ring closure, isolated yield: 76%

## CN1CCC=CCCC(OCc2ccccc2)(C(F)(F)F)C2=NN=C(O2)c2nc1c(S(C)(=O)=O)cc2NC(=O)OC(C)(C)C (mixture of isomers)
From C=CCCN(C)c1nc(-c2nnc(C(CCC=C)(OCc3ccccc3)C(F)(F)F)o2)c(NC(=O)OC(C)(C)C)cc1S(C)(=O)=O, 14-membered ring, Zhan-1B (two charges), 4.01 mM, 70.0 °C, 14.0 h
  ring closure, isolated yield: 41%

## COCCN1CCC=CCCC(OCc2ccccc2)(C(F)(F)F)C2=NN=C(O2)c2nc1c(C(F)(F)F)cc2NC(=O)OC(C)(C)C (mixture of isomers)
From C=CCCN(CCOC)c1nc(-c2nnc(C(CCC=C)(OCc3ccccc3)C(F)(F)F)o2)c(NC(=O)OC(C)(C)C)cc1C(F)(F)F, 14-membered ring, Zhan-1B (19 mol%), 3.22 mM, 70.0 °C, 3.0 h
  ring closure, isolated yield: 60%

## COc1cc2nc(c1[N+](=O)[O-])-c1nnc(o1)C(OCc1ccccc1)(C(F)(F)F)CCC=CC[C@@H]1CCCN21 (mixture of isomers)
From C=CCCC(OCc1ccccc1)(c1nnc(-c2nc(N3CCC[C@H]3CC=C)cc(OC)c2[N+](=O)[O-])o1)C(F)(F)F, 14-membered ring, Zhan catalyst-1B, 6.85 mM, 70.0 °C, 5.0 h
  ring closure, isolated yield: 29%

## O=C1NNC(=O)[C@@](OCc2ccccc2)(C(F)(F)F)CCC=CCC2(CCCCC2)Nc2nc1c([N+](=O)[O-])cc2C(F)(F)F (mixture of isomers)
From C=CCC[C@@](OCc1ccccc1)(C(=O)NNC(=O)c1nc(NC2(CC=C)CCCCC2)c(C(F)(F)F)cc1[N+](=O)[O-])C(F)(F)F, 15-membered ring, Zhan catalyst-1B, 4.99 mM, 60.0 °C, 2.0 h
  ring closure, isolated yield: 70%

## O=[N+]([O-])c1cc(C(F)(F)F)c2nc1-c1nnc(o1)C(OCc1ccccc1)(C(F)(F)F)CCC=CCCN2CCOCc1ccccc1 (mixture of isomers)
From C=CCCN(CCOCc1ccccc1)c1nc(-c2nnc(C(CCC=C)(OCc3ccccc3)C(F)(F)F)o2)c([N+](=O)[O-])cc1C(F)(F)F, 14-membered ring, Zhan-1B (25 mol%), 2.75 mM, 75.0 °C, 2.0 h
  ring closure, isolated yield: 59%

## O=[N+]([O-])c1cc(C(F)(F)F)c2nc1-c1nnc(o1)C(OCc1ccccc1)(C(F)(F)F)CCC=CCCN2Cc1ccccc1 (mixture of isomers)
From C=CCCN(Cc1ccccc1)c1nc(-c2nnc(C(CCC=C)(OCc3ccccc3)C(F)(F)F)o2)c([N+](=O)[O-])cc1C(F)(F)F, 14-membered ring, Zhan-1B, 1.77 mM, 75.0 °C, 3.0 h
  ring closure, isolated yield: 68%

## O=[N+]([O-])c1cc(C(F)(F)F)c2nc1-c1nnc(o1)C(OCc1ccccc1)(C(F)(F)F)CCC=CC[C@@H]1COCCN21 (mixture of isomers)
From C=CCCC(OCc1ccccc1)(c1nnc(-c2nc(N3CCOC[C@H]3CC=C)c(C(F)(F)F)cc2[N+](=O)[O-])o1)C(F)(F)F, 14-membered ring, Zhan-1B, 15.9 mM, 70.0 °C, 3.5 h
  ring closure, isolated yield: 56%

## O=[N+]([O-])c1cc(C(F)(F)F)c2nc1-c1nnc(o1)[C@@](OCc1ccccc1)(C(F)(F)F)CCC=CCC(Cc1ccccc1)N2 (mixture of isomers)
From C=CCC[C@@](OCc1ccccc1)(c1nnc(-c2nc(NC(CC=C)Cc3ccccc3)c(C(F)(F)F)cc2[N+](=O)[O-])o1)C(F)(F)F, 14-membered ring, Zhan catalyst-1B, 9.18 mM, 75.0 °C, 2.0 h
  ring closure, isolated yield: 19%

## O=[N+]([O-])c1cc(C(F)(F)F)c2nc1-c1nnc(o1)[C@@](OCc1ccccc1)(C(F)(F)F)CCC=CCC1(CCC1)N2 (mixture of isomers)
From C=CCC[C@@](OCc1ccccc1)(c1nnc(-c2nc(NC3(CC=C)CCC3)c(C(F)(F)F)cc2[N+](=O)[O-])o1)C(F)(F)F, 14-membered ring, Zhan catalyst-1B, 3.27 mM, 85.0 °C, 5.0 h
  ring closure, isolated yield: 68%

## O=[N+]([O-])c1cc(C(F)(F)F)c2nc1-c1nnc(o1)[C@@](OCc1ccccc1)(C(F)(F)F)CCC=CCC1(CCCC1)N2 (mixture of isomers)
From C=CCC[C@@](OCc1ccccc1)(c1nnc(-c2nc(NC3(CC=C)CCCC3)c(C(F)(F)F)cc2[N+](=O)[O-])o1)C(F)(F)F, 14-membered ring, Zhan catalyst-1B, 6.3 mM, 70.0 °C, 2.5 h
  ring closure, isolated yield: 27%

## O=[N+]([O-])c1cc(C(F)(F)F)c2nc1-c1nnc(o1)[C@@](OCc1ccccc1)(C(F)(F)F)CCC=CCC1(CCOC1)N2 (mixture of isomers)
From C=CCC[C@@](OCc1ccccc1)(c1nnc(-c2nc(NC3(CC=C)CCOC3)c(C(F)(F)F)cc2[N+](=O)[O-])o1)C(F)(F)F, 14-membered ring, Zhan catalyst-1B, 3.17 mM, 60.0 °C, 3.75 h
  ring closure, isolated yield: 82%

## O=[N+]([O-])c1cc(C(F)(F)F)c2nc1-c1nnc(o1)[C@@](OCc1ccccc1)(C(F)(F)F)CCC=CCC1(CCOCC1)N2 (mixture of isomers)
From C=CCC[C@@](OCc1ccccc1)(c1nnc(-c2nc(NC3(CC=C)CCOCC3)c(C(F)(F)F)cc2[N+](=O)[O-])o1)C(F)(F)F, 14-membered ring, Zhan catalyst-1B, 3.13 mM, 60.0 °C, 3.75 h
  ring closure, isolated yield: 80%
